The results in this text go back to patent US3950374A, “Carbamate pesticide” (priority 1972, dated 1976).

Assay type in all cases: in vivo
For data set [1], the system named is smaller brown planthoppers (Laodelphax striatellus). As to the kind of experiment: Effect on smaller brown planthoppers in soil treatment (Test Example 2). The following applies: 6 % granules, 6 kg./10 ares soil treatment; released after 3 days, observed after 24 hours. How it is done:
Effect on smaller brown planthoppers (Laodelphax striatellus) in soil treatment.
Each of 6 % granules of the present compounds is applied in a ratio of 6 kg./10 ares near the root of rice plants grown into the tillering stage a 1/100,000 Wagner's pot. After 3 days, 30 adult planthoppers are released and covered with a wire cage. After 24 hours, the number of dead and live planthoppers are observed to calculate the mortality rate.

For a further data set, the system named is nematode. Put plainly: Effect on nematode (Test Example 6). The following applies: 500 ppm active ingredient; after 24 hours. How it is done:
0.5 ml. of a nematode-containing aqueous solution separated from food is placed in a test tube with ground stopper containing 0.5 ml. of an aqueous dilute solution of each emulsifiable concentrate of the present compounds. The concentration of the active ingredient in the mixture is adjusted to 500 ppm. After 24 hours, the number of dead and live nematodes are observed microscopically to calculate the mortality rate.

The subject of data set [2] is tobacco cut worm (Spodoptera litura). As to the kind of experiment: Effect on tobacco cut worm (Test Example 7). As to conditions: 1000 fold dilute solution of emulsifiable concentrate, fourth instar larvae. On the procedure:
Effect on tobacco cut worm (Spodoptera litura).
A 1000 fold dilute solution of each emulsifiable concentrate of the present compounds is applied by means of a turn table to a potted chinese cabbage 60 days after sowing. After air-drying, fourth instar larvae of the tobacco cut worm are released and the mortality rate after 24 hours and 48 hours is calculated.

The test system of data set [3] is green peach aphids (Myzus persicae). As to the kind of experiment: Effect on green peach aphids in soil treatment (Test Example 3). As to conditions: 5 % granules, 6 kg./10 ares soil treatment; after 3 days; chinese cabbages. From the text: Effect on green peach aphids (Myzus persicae) in soil treatment.
Many of the aphids are made parasitic on chinese cabbages grown in a pot one month after sowing, and each of 5 % granules of the present compounds is applied in a ratio of 6 kg./10 ares near the root thereof. After 3 days, the number of dead and live aphids are observed to calculate the mortality rate.

Data set [4] relates to smaller brown planthoppers (Lacdelphax striatellus). Put plainly: Lethal effect on smaller brown planthoppers (Test Example 1). How it is done:
Lethal effect on smaller brown planthoppers (Lacdelphax striatellus)
Rice plants (15 to 20 cm tall) 15 days after germination, are dipped for 1 minute into each aqueous dilute solution of the present compounds in the form of emulsifiable concentrates, and placed in large glass tubes separately after air-drying. Thereafter, 20 to 30 adult planthoppers are released therein and covered with a wire net. After 24 hours, the number of dead and live planthoppers are observed to calculate LC50. The number of the compounds in Table 1 correspond to those of the compounds mentioned above.

Data set [5] has as its system carmine mite (Tetranychus telarius). As to the kind of experiment: Acaricidal activity on carmine mite (Test Example 10). As to conditions: 1000 fold dilute solution of 40 % wettable powder, 10 ml./pot, after 10 days. How it is done: Acaricidal activity on carmine mite (Tetranychus telarius).
From 10 to 15 female carmine mites are made parasitic, in a ratio of 10 - 15/leaf, on leaves of potted kidney beans is (a leaves stage), 9 days after sowing, and kept at 27°C. For a week in a constant temperature room, then breeding of numerous carmine mites at various growth stages can be observed. At this time, a 1000 fold aqueous dilute solution of each 40 % wettable powder of the present compounds is sprayed by means of a turn table in a ratio of 10 ml./pot. After 10 days, the degree of damage of kidney beans and the degree of breeding of mites are observed and classified into five grades (-, +, […] , +++, ++++ ).
The degree of damage of kidney bean leaves:
-; damage is hardly observed, […]
and the degree of damage in between the two extremes is classified into three grades.
The degree of breeding of carmine mites: -; the number alive is less than 10, ++++; the alive are numerous, and the degree of breeding in between the two extremes is classified into three grades.

The test system of data set [6] is larvae of northern house mosquito (Culex pipien pallens). As to the kind of experiment: Effect on mosquito larvae (Test Example 8). On the procedure:
Effect on mosquito larvae.
200 ml. of an aqueous solution of each emulsifiable concentrate of the present compounds which is adjusted to the concentration of 1 ppm with pure water are placed in a 300 ml. beaker and 30 larvae of northern house mosquito (Culex pipien pallens) are released therein. the mortality rate is calculated.

The test system of data set [7] is rice stem borer (Chilo suppressalis). Put plainly: Lethal effect on rice stem borer (Test Example 5). As to conditions: 1000 fold dilute solution of 50 % emulsifiable concentrate; 4 days after application. From the text: Lethal effect on rice stem borer (Chilo suppressalis).
Eggs just before hatching of the rice stem borer are applied in a ratio of 100/pot near the root of rice plants grown into the tillering stage in a 1/100,000 Wagner's pot. After the eggs hatched and the larvae enter into stems of rice plants, a 1000 fold dilute solution of each 50 % emulsifiable concentrate of the present compounds is applied by means of a turn table. The number of dead and live stem borers are observed to calculate the mortality rate 4 days after application.

The test system of data set [8] is green rice leafhoppers (Nephotettix cincpiceps). As to the kind of experiment: Effect on green rice leafhoppers in soil treatment (Test Example 4). As to conditions: 6 % granules, 6 kg./10 ares soil treatment; released after 3 days, observed after 24 hours. How it is done:
Effect on green rice leafhoppers (Nephotettix cincpiceps) in soil treatment.
Each of 6 % granules of the present compounds is applied in a ratio of 6 kg./10 ares near the root of rice plants grown into the tillering stage in a 1/100,000 Wagner's pot. After 3 days, 30 adult leafhoppers are released and covered with a wire cage. After 24 hours, the number of dead and live leafhoppers are observed to calculate the mortality rate.

Data set [9] concerns smaller brown planthoppers (Loadelphax striatellus). Put plainly: Residual effect on smaller brown planthoppers (Test Example 11). The following applies: 1000 fold dilute solution of 50 % emulsifiable concentrate; for Mortality after 4 days: after 4 days (residual effect); for Mortality after 7 days: after 7 days (residual effect). On the procedure:
Residual effect on smaller brown planthoppers (Loadelphax striatellus).
From 18 to 23 rice plants are grown into a 3 - 4 leaves stage in each flower pot of 10 cm. in diameter, then a 1000 fold aqueos dilute solution of each 50 % emulsifiable concentrate of the present componds is applied thereto. After air-drying, each pot is covered with a wire cage, and 20 - 30 adult planthoppers are released therein, and after 24 hours the mortality rate is calculated. Furthermore, the planthoppers are released each day to investigate the residual effect of the present compounds.

Each structure is given as a SMILES string. Values after ≈ are worked out from the molar mass of the structure shown. Where two headings read alike, the source gives them in different places.

On to `CCCCCCCCCCCC[S+]([O-])N(C)C(=O)ON=C(C)SC` (stereo not drawn) [Compound 14], for which the Mortality in data set [1] was found to be 90.0%; in the data set with nematode it was 100%; in data set [3], 76.5%. The “Mortality After 24 hrs.” value in data set [2] is 90%. Also, the “Mortality After 48 hrs.” value in [2] is recorded as 100%.

In general, LC50 refers to the concentration lethal to half of the exposed cells or organisms. What is called mortality is the percentage killed. On to `CSC(C)=NOC(=O)N(C)[S+]([O-])c1ccccc1` (stereo not drawn) [Compound 15], for which the LC50 in data set [4] (rice plants dipped 1 minute in dilute emulsifiable concentrate, after 24 hours, read-out: LC50) came out at 123 µg/mL (≈ 430 µM). The Degree of breeding entry in [5] (carmine mites) is on record as “- (the number alive is less than 10)”. Also, in data set [5] (kidney bean leaves), the Degree of damage entry is “-~+”. For the same molecule, the Mortality in the data set with nematode was determined as 100%; in data set [7], 82.3%; in data set [3], 95.9%; in data set [8], 70.0%. The mortality at 1 ppm in data set [6] (1 ppm aqueous solution of emulsifiable concentrate, 30 larvae, time not stated, read-out: Mortality) was 78.3%.

Regarding `CCC(=NOC(=O)N(C)[S+]([O-])c1ccccc1)SC` (stereo not drawn) [Compound 19], the Mortality in [7] is reported as 66.7%.

In data set [4] (24 h), `Cc1cccc(OC(=O)N(C)[S+]([O-])c2ccccc2)c1` (stereo not drawn) [Compound 7] gave a 50% lethal concentration (LC50) of 43 µg/mL (≈ 149 µM). For the same molecule, in [9], the “Mortality after 1 day” value stood at 86.7%, the “Mortality after 4 days” value was 65.0% and the “Mortality after 7 days” value came out at 46.7%. In [8], the Mortality turned out to be 96.7%.

`Cc1cccc(OC(=O)N(C)[S+]([O-])c2ccccc2)c1C` (stereo not drawn) [Compound 3] yielded an LC50 in data set [4] (24 h) of 70 µg/mL (≈ 231 µM). In addition, in data set [9], the “Mortality after 1 day” value came out at 100%, the “Mortality after 4 days” value was 64.0% and the “Mortality after 7 days” value is 50.0%.

As to `CCC[S+]([O-])N(C)C(=O)ON=C(C)SC` (stereo not drawn) [Compound 13], the Mortality with nematode came to 100%; in data set [7] it was 83.2%; in [3], 96.7%. The “Mortality After 24 hrs.” value in [2] was 100%. Further, the “Mortality After 48 hrs.” value in data set [2] is given as 100%.

Molecule `Cc1ccc([S+]([O-])N(C)C(=O)Oc2ccc(C)c(C)c2)cc1` (stereo not drawn) [Compound 8] had an LC50 in [4] (24 h) of 50 µg/mL (≈ 158 µM). The mortality at 1 ppm in data set [6] was determined as 100%. For the same molecule, in data set [9], the “Mortality after 1 day” value is on record as 85.0%, the “Mortality after 4 days” value was 50.0% and the “Mortality after 7 days” value is on record as 42.0%.

In the case of `CN(C(=O)Oc1ccc(Cl)cc1)[S+]([O-])c1ccccc1` (stereo not drawn) [Compound 2], the LC50 in data set [4] (24 h) stood at 20 µg/mL (≈ 64.6 µM). Moreover, in the data set on nematode, the Mortality came to 79.8%. Moreover, in [9], the “Mortality after 1 day” value amounted to 96.7%, the “Mortality after 4 days” value turned out to be 75.0% and the “Mortality after 7 days” value was found to be 20.0%. Besides, the Mortality in data set [8] turned out to be 75.0%.

For `Cc1cc(C)cc(OC(=O)N(C)[S+]([O-])c2ccccc2)c1` (stereo not drawn) [Compound 5], in data set [4] (24 h), the 50% lethal concentration (LC50) came out at 18 µg/mL (≈ 59.3 µM). In data set [9], the “Mortality after 1 day” value stood at 100%, the “Mortality after 4 days” value was determined as 100% and the “Mortality after 7 days” value is given as 45.0%. In addition, the Mortality in [8] is 68.0%.

In data set [4] (24 h), `Cc1ccc(OC(=O)N(C)[S+]([O-])c2ccccc2)cc1C` (stereo not drawn) [Compound 6] had a median lethal concentration (LC50) of 25 µg/mL (≈ 82.4 µM). This molecule displayed a Mortality in the data set on nematode of 100%. In data set [6], this molecule had a mortality at 1 ppm of 70%. For the same molecule, in data set [9], the “Mortality after 1 day” value is reported as 90.0%, the “Mortality after 4 days” value turned out to be 63.3% and the “Mortality after 7 days” value was 50.0%.

In the case of `CCCSC(C)=NOC(=O)N(C)[S+]([O-])c1ccc(Cl)cc1` (stereo not drawn) [Compound 21], the Mortality in the data set with nematode came out at 65.0%.

Take `Cc1ccc(OC(=O)N(C)[S+]([O-])c2ccccc2)c(C)c1` (stereo not drawn) [Compound 4]: the median lethal concentration (LC50) in [4] (24 h) was 33 µg/mL (≈ 109 µM). Moreover, in data set [9], the “Mortality after 1 day” value is recorded as 100%, the “Mortality after 4 days” value turned out to be 83.3% and the “Mortality after 7 days” value turned out to be 53.3%.

The molecule `Cc1ccc([S+]([O-])N(C)C(=O)Oc2cccc(C)c2C)cc1` (stereo not drawn) [Compound 9] gave an LC50 in data set [4] (24 h) of 29 µg/mL (≈ 91.4 µM). For the same molecule, the mortality at 1 ppm in data set [6] was determined as 66.7%. In data set [9], the “Mortality after 1 day” value was 100%, the “Mortality after 4 days” value is on record as 62.3% and the “Mortality after 7 days” value was 30.0%. Also, the Mortality in data set [8] stood at 83.3%.

With `CNC(=O)Oc1ccc(C)c(C)c1` [Meobal, 3,4-dimethylphenyl-N-methylcarbamate, reference compound], in data set [9], the “Mortality after 1 day” value came out at 100%, the “Mortality after 4 days” value was 53.2% and the “Mortality after 7 days” value amounted to 10.0%.

Turning to `Cc1ccc(OC(=O)N(C)[S+]([O-])c2ccc(Cl)cc2)cc1C` (stereo not drawn) [Compound 11], in data set [4] (24 h), the LC50 turned out to be 40 µg/mL (≈ 118 µM). In addition, in the data set with nematode, the Mortality turned out to be 75.0%. Further, in [6], the mortality at 1 ppm is 100%. In data set [9], the “Mortality after 1 day” value came to 100%, the “Mortality after 4 days” value amounted to 85.0% and the “Mortality after 7 days” value is reported as 75.0%.

`Cc1ccc(OC(=O)N(C)[S+]([O-])c2ccc([N+](=O)[O-])cc2)cc1C` (stereo not drawn) [Compound 10]: the LC50 in data set [4] (24 h) was found to be 33 µg/mL (≈ 94.7 µM). Besides, in [9], the “Mortality after 1 day” value was found to be 100%, the “Mortality after 4 days” value was 50.0% and the “Mortality after 7 days” value is listed as 23.3%. For the same molecule, in data set [8], the Mortality came to 72.2%.
